We go through six compounds from patent US7407980B2, “Imidazolinylmethyl aralkylsulfonamides” (Roche Palo Alto LLC, priority 2002, dated 2008).

The target in this test is T1, alpha 1A adrenoceptors (Homo sapiens, UniProt P35348).
T1 construct: expressed in transfected cells; host or cells: CHO-K1 (clone 13)
T1 sequence (P35348 1-466): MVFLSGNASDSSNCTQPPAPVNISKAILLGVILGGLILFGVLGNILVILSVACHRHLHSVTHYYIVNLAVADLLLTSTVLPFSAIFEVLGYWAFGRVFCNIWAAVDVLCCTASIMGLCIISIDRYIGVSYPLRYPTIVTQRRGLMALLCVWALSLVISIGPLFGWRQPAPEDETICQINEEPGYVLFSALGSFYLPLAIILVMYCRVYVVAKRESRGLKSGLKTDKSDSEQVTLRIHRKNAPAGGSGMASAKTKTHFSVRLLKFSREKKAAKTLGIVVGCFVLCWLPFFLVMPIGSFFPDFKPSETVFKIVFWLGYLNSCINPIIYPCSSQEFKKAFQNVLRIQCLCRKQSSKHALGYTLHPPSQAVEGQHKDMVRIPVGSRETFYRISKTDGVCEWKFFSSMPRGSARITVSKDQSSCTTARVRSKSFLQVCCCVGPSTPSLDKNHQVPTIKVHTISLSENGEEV
In words: Functional assay: fluorescent dye (Fluo-3, FLIPR) determination of intracellular calcium in CHO-K1 cells expressing alpha 1A adrenoceptors (clone 13). The note with it: for EC50: CHO-K1 cells expressing alpha 1A adrenoceptor (clone 13), agonist, intracellular calcium, FLIPR, read-out: CHO-1A-13 pEC50 (converted); for CHO-1A-13 IA: intrinsic activity: maximum response relative to norepinephrine bitartrate (full agonist), CHO-K1 alpha 1A clone 13. Type of test: cell-based. Here is the method: The activity of potential α1A/L activity in vitro was determined by evaluating the potency and relative intrinsic activity (relative to norepinephrine or phenylephrine) of standard and novel compounds using fluorescent dye determination of intracellular calcium concentrations.
This example illustrates a functional assay which can be used to determine α1A/L agonist activity of Compounds of Formula I.
The activity of compounds of this invention in vitro was examined using fluorescent dye determination of intracellular calcium concentrations.
Chinese hamster ovary cells CHO-K1 expressing the alpha 1A adrenoceptors (clone 13) are washed 4 times (approx. 300 μL/well) with fluorometric imaging plate reader (FLIPR) buffer (Hank's buffered saline solution (HBSS), 2 mM CaCl2, 10 mM HEPES, 2.5 mM probenecid, 100 μM ascorbic acid), with a final volume of 150 μL/well. Cells are loaded with 50 μL/well of 8 μM Fluo-3 AM (Molecular Probes, Eugene, Oreg.), for a final concentration of 2 μM Fluo-3 AM. Cells are then incubated for 60 min at 37° C. Following dye loading, cells are washed 4 times (approx. 300 μL/well) with FLIPR buffer with a final volume of 150 μL/well.
Test compound, control compound and reference compound are run in quadruplicate, 8-point curves on each plate with a final assay concentration range of 10^−4 M to 10^−11 M for each compound. All compounds are dissolved in DMSO at 10 mM, and serially diluted in FLIPR buffer.
The assay plate is placed in the FLIPR incubation chamber and a baseline fluorescence measurement (excitation @ 488 nm and emission @ 510-570 nm) is obtained (15 sec interval). An experimental run is then commenced. The reaction is started with the addition of 50 μL/well (at 4× final concentration) of test, control, or reference compound solution from the agonist plate to the assay plate to all 96 wells simultaneously. Fluorescence is measured for 120 sec at 1 sec intervals. Then, a second addition of 5 μM ionomycin (50 μL/well from 5× concentration ionomycin plate) is added to the assay plate. Fluorescence is measured for 30 sec at 1 sec intervals. All experiments are conducted at room temperature.
For each assay plate, responses (increase in peak fluorescence) in each well following addition of agonist (test, control and reference) are determined. These responses may be expressed as raw CFU (Corrected Fluorescence Units), as a % maximum ionomycin response or other unit as determined by the investigator.
For test compound, control compound (Norepinephrine (NE) bitartrate), and reference compound, the concentration producing a 50% increase in control response (EC50) is determined using iterative curve-fitting methods. Excel spreadsheet or Kaleidagraph software are used to fit data to the general logistic function (E=B+Emax·A^nH/A^nH+EC50^nH), where B is the corrected baseline fluorescence units (defined as zero), A is the concentration of agonist added and nH is the Hill slope (constrained to unity). EC50 values and maxima (Emax) for each curve can be estimated objectively using this software.
In addition, the intrinsic activity (a) is determined. Intrinsic activity is defined as the maximum response to test agonist divided by the maximum response to a full agonist acting through the same receptor. For these experiments, the full agonist is defined as Norepinephrine (NE) bitartrate (control).
As used herein an agonist is a compound that elicits a maximal response greater of that of norepinephrine with a pEC50>5.5.
(In general: Calcium assays in cells follow changes in intracellular calcium, usually with a dye or a luminescent sensor.)

On to `CS(=O)(=O)Nc1ccc(CC2=NCCN2)c2ccoc12` [Compound 8, N-[4-(4,5-Dihydro-1H-imidazol-2-ylmethyl)-benzofuran-7-yl]-methanesulfonamide], for which the EC50 is 302 nM and the “CHO-1A-13 IA” value worked out at 0.65.

In the case of `CCS(=O)(=O)Nc1ccc(CC2=NCCN2)cc1Cl` [Compound 13, Ethanesulfonic acid [2-chloro-4-(4,5-dihydro-1H-imidazol-2-ylmethyl)-phenyl]-amide], the EC50 is 661 nM and the “CHO-1A-13 IA” value is recorded as 0.16.

For the compound `COc1cc(NS(C)(=O)=O)ccc1CC1=NCCN1` [Compound 6, N-[4-(4,5-Dihydro-1H-imidazol-2-ylmethyl)-3-methoxy-phenyl]-methanesulfonamide], the EC50 is 347 nM and the “CHO-1A-13 IA” value amounted to 0.43.

On to `COc1cc(NS(C)(=O)=O)c(OC)cc1CC1=NCCN1` [Compound 22, N-[4-(4,5-Dihydro-1H-imidazol-2-ylmethyl)-2,5-dimethoxy-phenyl]-methanesulfonamide], for which the EC50 is 692 nM and the “CHO-1A-13 IA” value is 0.27.

Consider `COc1cc(CC2=NCCN2)c(Cl)cc1NS(C)(=O)=O` [Compound 25, N-[5-Chloro-4-(4,5-dihydro-1H-imidazol-2-ylmethyl)-2-methoxy-phenyl]-methanesulfonamide], for which the EC50 is 75.9 nM and the “CHO-1A-13 IA” value was found to be 0.81.

For the compound `COc1cc(CC2=NCCN2)ccc1NS(C)(=O)=O` [Compound 2, N-[4-(4,5-Dihydro-1H-imidazol-2-ylmethyl)-2-methoxy-phenyl]-methanesulfonamide], the EC50 was 170 nM and the “CHO-1A-13 IA” value turned out to be 0.92.
